Measured values as given in US11419335B2, “N-arylated analogues and uses thereof” (University of Florida Research Foundation, Incorporated, priority 2016, dated 2022).
Like-named read-outs stand apart in the source and are kept apart here. Marks after values point to notes of the source that are not given here.

Assays:
MRSA BAA-44 = assay: MIC broth microdilution, MRSA BAA-44; assay type: cell-based, Staphylococcus aureus
Protocol: (§1) The minimum inhibitory concentration (MIC) for each tested compound was determined by the broth microdilution method as recommended by the Clinical and Laboratory Standards Institute (CLSI). In a 96-well plate, eleven two-fold serial dilutions of each compound were made in a final volume of 100 μL Luria Broth. Each well was inoculated with ˜10^5 bacterial cells at the initial time of incubation, prepared from a fresh log phase culture (OD600 of 0.5 to 1.0 depending on bacterial strain). […] (MIC values were supported by spectrophotometric readings at OD600). DMSO served as our vehicle and negative control in each microdilution MIC assay. DMSO was serially diluted with a top concentration of 1% v/v.
(§2) Each well was inoculated with ˜10^5 bacterial cells at the initial time of incubation, prepared from a fresh log phase culture (OD600 of 0.5 to 1.0 depending on bacterial strain). […] The concentration range tested for each compound during this study was 0.10 to 100 μM. DMSO served as our vehicle and negative control in each microdilution MIC assay. DMSO was serially diluted with a top concentration of 1% v/v. All MIC values were obtained from a minimum of three independent experiments.

MRSA BAA-1707 = assay: MIC broth microdilution, MRSA BAA-1707; assay type: cell-based, Staphylococcus aureus; conditions: for MIC MRSA 1707: Table 4
How it was run: (§3)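 CLSI broth microdilution in Luria Broth with eleven two-fold dilutions across 0.10 to 100 μM, inoculated with ~10^5 cells from log-phase culture. Values come from at least three independent experiments.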

[1] = tested on: MRSA-1 (clinical isolate); assay: MIC broth microdilution, MRSA-1; assay type: cell-based, Staphylococcus aureus
Protocol: as §1, §2

[2] = tested on: methicillin-resistant Staphylococcus aureus MRSA-2 (clinical isolate); assay: MIC broth microdilution, MRSA-2; assay type: cell-based; conditions: for MRSA-2 MIC: Table 2A
How it was run: (§4)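 CLSI broth microdilution in Luria Broth: eleven two-fold dilutions (0.10–100 μM), ~10^5 log-phase cells per well, 16–18 h at 37 °C. MIC was the lowest concentration preventing growth, supported by OD600. DMSO up to 1% v/v was the vehicle; values come from at least three independent experiments.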

[3] = tested on: human red blood cells (hRBC); assay: Hemolysis of red blood cells; assay type: cell-based; conditions: for HC50: Table 1A; for RBC HC50: Table 4, concentration required to lyse 50% of red blood cells
How it was run: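 hRBCs (2% suspension) exposed to compounds at 0.2–200 μM (ten-point dose-response) for 1 h at 37 °C; after centrifugation, haemoglobin release read as supernatant OD at 405 nm. DMSO set as 0% and Triton X as 100% haemolysis; HC50 from dose-response curves, three independent experiments.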

[4] = tested on: SA-129 (clinical isolate); assay: MIC broth microdilution, SA-129; assay type: cell-based, Staphylococcus aureus
Protocol: as §1, §2

[5] = tested on: methicillin-sensitive Staphylococcus aureus ATCC 29213; assay: MIC broth microdilution, S. aureus 29213; assay type: cell-based
How it was run: as §3

[6] = tested on: methicillin-resistant Staphylococcus epidermidis (MRSE strain ATCC 35984); assay: MIC broth microdilution, MRSE 35984; assay type: cell-based; conditions: for MIC S. epidermidis MRSE 35984: Table 1A; for MRSE 35984 MIC: Table 2A; for MIC MRSE 35984: Table 4
How it was run: as §4

[7] = tested on: SA-156 (clinical isolate); assay: MIC broth microdilution, SA-156; assay type: cell-based, Staphylococcus aureus
Protocol: as §1, §2

[8] = tested on: Acinetobacter baumannii (ATCC 1794); assay: MIC broth microdilution, A. baumannii 1794; assay type: cell-based; conditions: for MIC A. baumannii 1794: Table 1A, in µM; for MIC A. bau. 1794: Table 4
How it was run: as §4

[9] = tested on: vancomycin-resistant Enterococcus faecium (VRE strain ATCC 700221); assay: MIC broth microdilution, VRE 700221; assay type: cell-based; conditions: for MIC E. faecium VRE 700221: Table 1A; for VRE MIC: Table 2A; for MIC VRE 700221: Table 4
How it was run: as §4

[10] = tested on: SA-138 (clinical isolate); assay: MIC broth microdilution, SA-138; assay type: cell-based, Staphylococcus aureus
Protocol: as §1, §2

[11] = tested on: Pseudomonas aeruginosa (PAO1); assay: MIC broth microdilution, PAO1; assay type: cell-based
How it was run: as §4

[12] = tested on: SA-147 (clinical isolate); assay: MIC broth microdilution, SA-147; assay type: cell-based, Staphylococcus aureus
Protocol: as §1, §2

[13] = Table 1B, read-out: MIC MRSA BAA-1707
[14] = Table 2A, read-out: MRSA BAA-1707 MIC
[15] = Table 3, read-out: MIC MRSA BAA-1707

Structure (SMILES) | MIC (MRSA BAA-1707; [13]) | MIC (MRSA BAA-1707; [14]) | MIC (MRSA BAA-1707; [15]) | MIC MRSA 1707 (MRSA BAA-1707) | MIC MRSA-2 ([2]; Table 1A) | MRSA-2 MIC [2] | MIC MRSA-2 ([2]; Table 3) | MIC MRSA-2 ([2]; Table 4) | HC50 [3] | RBC HC50 [3] | MIC ([4]; Table 1B) | MIC ([4]; Table 3) | MIC S. aureus 29213 ([5]; Table 1B) | MIC S. aureus 29213 ([5]; Table 3) | MIC S. epidermidis MRSE 35984 [6] | MRSE 35984 MIC [6] | MIC MRSE 35984 [6] | MIC ([7]; Table 1B) | MIC ([7]; Table 3) | MIC A. baumannii 1794 [8] | other results
CCCCCCCCCCCCCCCCn1cc[n+](CCO)c1C.[Br-] [Compound 11] | 0.39 µM | 0.39 µM | 0.39 µM | 0.39 µM | 1.56 µM | 1.56 µM | 1.17^a μM | 1.17a micromolar | 6.8 µM | 6.8 µM | 1.56 µM | 1.56 µM | 1.17^a μM | 1.17^a μM | 0.59^a | 0.59^a μM | 0.59a micromolar | 1.56 µM | 1.56 µM | 6.25 | MIC (MRSA BAA-44; Table 1B): 1.56 µM; MIC (MRSA BAA-44; Table 3): 1.56 µM; MIC MRSA-1 ([1]; Table 1B): 1.17^a μM; MIC MRSA-1 ([1]; Table 3): 1.17^a μM; MIC ([2]; Table 1B, read-out: MIC MRSA-2): 0.78 µM; MIC A. bau. 1794 [8]: 6.25 µM; MIC E. faecium VRE 700221 [9]: 1.56 µM; VRE MIC [9]: 1.56 µM; MIC VRE 700221 [9]: 1.56 µM; MIC ([10]; Table 1B): 1.56 µM; MIC ([10]; Table 3): 1.56 µM; MIC PAO1 ([11]; Table 1A): > 100 µM; MIC PAO1 ([11]; Table 4): >100 µM; MIC SA-147 ([12]; Table 1B): 1.17^a μM; MIC SA-147 ([12]; Table 3): 1.17^a μM
CCCCCCCCCCCCCCCCn1cc[n+](Cc2cccc(F)c2)c1C.[Br-] [Compound 18] | 1.56 µM | 1.56 µM | 1.56 µM | 1.56 µM | 2.35^a | 2.35^a μM | 2.35^a μM | 2.35a micromolar | 16.7 µM | 16.7 µM | 3.13 µM | 3.13 µM | 4.69^a μM | 4.69^a μM | 1.17^a | 1.17^a μM | 1.17a micromolar | 3.13 µM | 3.13 µM | 25 | MIC MRSA BAA-44 (MRSA BAA-44; Table 1B): 2.35^a μM; MIC MRSA BAA-44 (MRSA BAA-44; Table 3): 2.35^a μM; MIC ([1]; Table 1B): 3.13 µM; MIC ([1]; Table 3): 3.13 µM; MIC MRSA-2 ([2]; Table 1B): 2.35^a μM; MIC A. bau. 1794 [8]: 25 µM; MIC E. faecium VRE 700221 [9]: 1.56 µM; VRE MIC [9]: 1.56 µM; MIC VRE 700221 [9]: 1.56 µM; MIC ([10]; Table 1B): 3.13 µM; MIC ([10]; Table 3): 3.13 µM; MIC PAO1 ([11]; Table 1A): > 100 µM; MIC PAO1 ([11]; Table 4): >100 µM; MIC SA-147 ([12]; Table 1B): 2.35^a μM; MIC SA-147 ([12]; Table 3): 2.35^a μM
